This passage reports Ki and IC50 results from patent publication US11130769B2 (Prelude Therapeutics Incorporated, priority 2018, dated 2021).

Each structure is given as a SMILES string.

One assay has as its target MCL-1 (Homo sapiens (Human), UniProt Q07820). The assay can be described thus: Cell free Mcl-1:Bim affinity assay (fluorescence polarization competition). Type of assay: binding. The conditions noted are these: 15 nM MCL-1, 5 nM FITC-Bim, 1 hour at room temperature; class symbols; read-out: BIM_Ki. Summed up:
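Compounds competed with FITC-labelled Bim peptide (5 nM) for MCL-1 (15 nM) in HEPES/NaCl buffer with 1% DMSO, 1 h at room temperature. Fluorescence polarization (535 nm emission) gave % inhibition versus DMSO and positive controls; IC50 from 10-point curves, converted to Ki by the Nikolovska-Coleska equation.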

The subject of a further assay is H929 cells. The assay can be described thus: Cell viability assay (H929 10 FBS). It is filed as cell-based. The conditions noted are these: Homo sapiens, NCI-H929, 24 hours, read-out: H929_10FBS IC50. The gist of the method: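 H929 cells, 4000/well, in RPMI 1640 with 10% FBS, sodium pyruvate, HEPES and glucose were exposed to compound 24 h at 37 °C. Viability read as luminescence after 30-60 min at RT with CellTiter-Glo or ATPlite 1 Step.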

Sequence of MCL-1 (Q07820 whole entry): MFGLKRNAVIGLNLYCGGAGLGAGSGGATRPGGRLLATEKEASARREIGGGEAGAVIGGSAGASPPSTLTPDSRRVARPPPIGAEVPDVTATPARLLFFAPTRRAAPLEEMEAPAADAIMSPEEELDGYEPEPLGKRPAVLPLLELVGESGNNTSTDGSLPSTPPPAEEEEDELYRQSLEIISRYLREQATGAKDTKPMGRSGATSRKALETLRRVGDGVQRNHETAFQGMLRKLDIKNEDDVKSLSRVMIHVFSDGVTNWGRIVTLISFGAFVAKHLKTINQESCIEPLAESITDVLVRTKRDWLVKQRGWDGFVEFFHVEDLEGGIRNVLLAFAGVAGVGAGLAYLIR

As to `CN(C)C(=O)O[C@H]1/C=C/COC2(CCC2)C(=O)NS(=O)(=O)c2ccc3c(c2)N(C[C@@H]2CC[C@H]21)C[C@@]1(CCCc2cc(Cl)ccc21)CO3` [Example 231, [(3R,6R,7S,8E,22S)-7′-Chloro-12,12-(1,3-propylene)-13,15,15-trioxo-spiro[11,20-dioxa-15λ6-thia-1,14-diazatetracyclo[14.7.2.03,6.019,24]pentacosa-8,16,18,24-tetraene-22,4′-chromane]-7-yl] N,N-dimethyl-1-carboxylate], at MCL-1, the Ki was below 1 nM. In addition, the IC50 with H929 cells was below 500 nM.

Turning to `O=C(O[C@H]1/C=C/COC2(CCC2)C(=O)NS(=O)(=O)c2ccc3c(c2)N(C[C@@H]2CC[C@H]21)C[C@@]1(CCCc2cc(Cl)ccc21)CO3)N1CCC1` [Example 232, [(3R,6R,7S,8E,22S)-6′-Chloro-12,12-(1,3-propylene)-13,15,15-trioxo-spiro[11,20-dioxa-15-thia-1,14-diazatetracyclo[14.7.2.03,6.019,24]pentacosa-8,16(25),17,19(24)-tetraene-22,1′-tetralin]-7-yl] N,N-1,3-propylene carbamate], the Ki on MCL-1 is below 1 nM. Besides, the IC50 with H929 cells is below 500 nM.

Consider `CN(C)CCN(C)C(=O)O[C@H]1/C=C/COC2(CCC2)C(=O)NS(=O)(=O)c2ccc3c(c2)N(C[C@@H]2CC[C@H]21)C[C@@]1(CCCc2cc(Cl)ccc21)CO3` [Example 233, [(3R,6R,7S,8E,22S)-6′-Chloro-12,12-(1,3-propylene)-13,15,15-trioxo-spiro[11,20-dioxa-15-thia-1,14-diazatetracyclo[14.7.2.03,6.019,24]pentacosa-8,16(25),17,19(24)-tetraene-22,1′-tetralin]-7-yl] N-[2-(dimethylamino)ethyl]-N-methyl-carbamate], for which, on MCL-1, the Ki was below 1 nM. The IC50 in the assay with H929 cells is below 500 nM.

Take `CN(C(=O)O[C@H]1/C=C/COC2(CCC2)C(=O)NS(=O)(=O)c2ccc3c(c2)N(C[C@@H]2CC[C@H]21)C[C@@]1(CCCc2cc(Cl)ccc21)CO3)[C@@H]1CCOC1` [Example 234, [(3R,6R,7S,8E,22S)-6′-Chloro-12,12-(1,3-propylene)-13,15,15-trioxo-spiro[11,20-dioxa-15-thia-1,14-diazatetracyclo[14.7.2.03,6.019,24]pentacosa-8,16,18,24-tetraene-22,1′-tetralin]-7-yl] N-methyl-N-[(3R)-tetrahydrofuran-3-yl]carbamate]: on MCL-1, the Ki was below 1 nM. Also, in the assay on H929 cells, the 50% inhibitory concentration (IC50) was below 500 nM.

`CN(C(=O)O[C@H]1/C=C/COC2(CCC2)C(=O)NS(=O)(=O)c2ccc3c(c2)N(C[C@@H]2CC[C@H]21)C[C@@]1(CCCc2cc(Cl)ccc21)CO3)C1COC1` [Example 235, [(3R,6R,7S,8E,22S)-6′-Chloro-12,12-(1,3-propylene)-13,15,15-trioxo-spiro[11,20-dioxa-15-thia-1,14-diazatetracyclo[14.7.2.03,6.019,24]pentacosa-8,16,18,24-tetraene-22,1′-tetralin]-7-yl] N-methyl-N-(oxetan-3-yl)carbamate]: the Ki at MCL-1 is below 1 nM. Further, the IC50 in the assay with H929 cells is below 500 nM.

`CN(C(=O)O[C@H]1/C=C/COC2(CCC2)C(=O)NS(=O)(=O)c2ccc3c(c2)N(C[C@@H]2CC[C@H]21)C[C@@]1(CCCc2cc(Cl)ccc21)CO3)C1CCOCC1` [Example 236, [(3R,6R,7S,8E,22S)-6′-Chloro-12,12-(1,3-propylene)-13,15,15-trioxo-spiro[11,20-dioxa-15-thia-1,14-diazatetracyclo[14.7.2.03,6.019,24]pentacosa-8,16,18,24-tetraene-22,1′-tetralin]-7-yl] N-methyl-N-tetrahydropyran-4-yl-carbamate]: on MCL-1, the Ki is below 1 nM. Moreover, the IC50 in the assay with H929 cells was below 500 nM.

Consider `O=C(N[C@H]1CCOC1)O[C@H]1/C=C/COC2(CCC2)C(=O)NS(=O)(=O)c2ccc3c(c2)N(C[C@@H]2CC[C@H]21)C[C@@]1(CCCc2cc(Cl)ccc21)CO3` [Example 237, [(3R,6R,7S,8E,22S)-6′-Chloro-12,12-(1,3-propylene)-13,15,15-trioxo-spiro[11,20-dioxa-15-thia-1,14-diazatetracyclo[14.7.2.03,6.019,24]pentacosa-8,16(25),17,19(24)-tetraene-22,1′-tetralin]-7-yl] N-[(3S)-tetrahydrofuran-3-yl]carbamate], for which the Ki at MCL-1 is below 1 nM. For the same compound, the IC50 in the assay on H929 cells was below 500 nM.

With `COC1CN(C(=O)O[C@H]2/C=C/CN(C)C3(CCC3)C(=O)NS(=O)(=O)c3ccc4c(c3)N(C[C@@H]3CC[C@H]32)C[C@@]2(CCCc3cc(Cl)ccc32)CO4)C1` [Example 238, [(3R,6R,7S,8E,22S)-6′-Chloro-11-methyl-12,12-(1,3-propylene)-13,15,15-trioxo-spiro[20-oxa-15-thia-1,11,14-triazatetracyclo[14.7.2.03,6.019,24]pentacosa-8,16,18,24-tetraene-22,1′-tetralin]-7-yl] 3-methoxyazetidine-1-carboxylate], the Ki at MCL-1 is below 1 nM. Also, the IC50 in the assay with H929 cells was below 500 nM.

For the compound `CN(C(=O)O[C@H]1/C=C/CN(C)C2(CCC2)C(=O)NS(=O)(=O)c2ccc3c(c2)N(C[C@@H]2CC[C@H]21)C[C@@]1(CCCc2cc(Cl)ccc21)CO3)C1CCOCC1` [Example 239, [(3R,6R,7S,8E,22S)-6′-Chloro-11-methyl-12,12-(1,3-propylene)-13,15,15-trioxo-spiro[20-oxa-15-thia-1,11,14-triazatetracyclo[14.7.2.03,6.019,24]pentacosa-8,16,18,24-tetraene-22,1′-tetralin]-7-yl] N-methyl-N-tetrahydropyran-4-yl-carbamate], the Ki at MCL-1 is below 1 nM. In the assay with H929 cells, the IC50 is below 500 nM.

With `CN(C(=O)O[C@H]1/C=C/CN(C)C2(CCC2)C(=O)NS(=O)(=O)c2ccc3c(c2)N(C[C@@H]2CC[C@H]21)C[C@@]1(CCCc2cc(Cl)ccc21)CO3)C1COC1` [Example 240, [(3R,6R,7S,8E,22S)-6′-Chloro-11-methyl-12,12-(1,3-propylene)-13,15,15-trioxo-spiro[20-oxa-15-thia-1,14-triazatetracyclo[14.7.2.03,6.019,24]pentacosa-8,16,18,24-tetraene-22,1′-tetralin]-7-yl] N-methyl-N-(oxetan-3-yl)carbamate], at MCL-1, the Ki was below 1 nM. Also, the concentration for half-maximal inhibition (IC50) with H929 cells was below 500 nM.

In the case of `CN(C(=O)O[C@H]1/C=C/CN(C)C2(CCC2)C(=O)NS(=O)(=O)c2ccc3c(c2)N(C[C@@H]2CC[C@H]21)C[C@@]1(CCCc2cc(Cl)ccc21)CO3)[C@H]1CCOC1` [Example 241, [(3R,6R,7S,8E,22S)-6′-Chloro-11-methyl-12,12-(1,3-propylene)-13,15,15-trioxo-spiro[20-oxa-15-thia-1,11,14-triazatetracyclo[14.7.2.03,6.019,24]pentacosa-8,16,18,24-tetraene-22,1′-tetralin]-7-yl] N-methyl-N-[(3S)-tetrahydrofuran-3-yl]carbamate], the Ki on MCL-1 was below 1 nM. The IC50 with H929 cells was below 500 nM.

Take `CN(C(=O)O[C@H]1/C=C/CN(C)C2(CCC2)C(=O)NS(=O)(=O)c2ccc3c(c2)N(C[C@@H]2CC[C@H]21)C[C@@]1(CCCc2cc(Cl)ccc21)CO3)[C@@H]1CCOC1` [Example 242, [(3R,6R,7S,8E,22S)-6′-Chloro-11-methyl-12,12-(1,3-propylene)-13,15,15-trioxo-spiro[20-oxa-15-thia-1,11,14-triazatetracyclo[14.7.2.03,6.019,24]pentacosa-8,16,18,24-tetraene-22,1′-tetralin]-7-yl] N-methyl-N-[(3R)-tetrahydrofuran-3-yl]carbamate]: on MCL-1, the Ki was below 1 nM. Also, the IC50 in the assay with H929 cells was below 500 nM.

Take `CN1C/C=C/[C@H](OC(=O)N[C@@H]2CCOC2)[C@@H]2CC[C@H]2CN2C[C@@]3(CCCc4cc(Cl)ccc43)COc3ccc(cc32)S(=O)(=O)NC(=O)C12CCC2` [Example 243, [(3R,6R,7S,8E,22S)-6′-Chloro-11-methyl-12,12-(1,3-propylene)-13,15,15-trioxo-spiro[20-oxa-15-thia-1,11,14-triazatetracyclo[14.7.2.03,6.019,24]pentacosa-8,16,18,24-tetraene-22,1′-tetralin]-7-yl] N-[(3R)-tetrahydrofuran-3-yl]carbamate]: the Ki at MCL-1 was below 1 nM. In addition, the half-inhibitory concentration (IC50) with H929 cells is below 500 nM.

Consider `CCOC1CN(C(=O)O[C@H]2/C=C/CN(C)C3(CCC3)C(=O)NS(=O)(=O)c3ccc4c(c3)N(C[C@@H]3CC[C@H]32)C[C@@]2(CCCc3cc(Cl)ccc32)CO4)C1` [Example 244, [(3R,6R,7S,8E,22S)-6′-Chloro-11-methyl-12,12-(1,3-propylene)-13,15,15-trioxo-spiro[20-oxa-15-thia-1,11,14-triazatetracyclo[14.7.2.03,6.019,24]pentacosa-8,16,18,24-tetraene-22,1′-tetralin]-7-yl] 3-ethoxyazetidine-1-carboxylate], for which the Ki on MCL-1 was below 1 nM. Moreover, in the assay on H929 cells, the half-inhibitory concentration (IC50) was below 500 nM.

For `COC1CCN(C(=O)O[C@H]2/C=C/CN(C)C3(CCC3)C(=O)NS(=O)(=O)c3ccc4c(c3)N(C[C@@H]3CC[C@H]32)C[C@@]2(CCCc3cc(Cl)ccc32)CO4)CC1` [Example 245, [(3R,6R,7S,8E,22S)-6′-Chloro-11-methyl-12,12-(1,3-propylene)-13,15,15-trioxo-spiro[20-oxa-15-thia-1,11,14-triazatetracyclo[14.7.2.03,6.019,24]pentacosa-8,16,18,24-tetraene-22,1′-tetralin]-7-yl] 4-methoxypiperidine-1-carboxylate], the Ki on MCL-1 is below 1 nM. In addition, the IC50 in the assay on H929 cells was below 500 nM.
